Assay results published in ChEMBL document CHEMBL1201862, “PubChem BioAssay data set” (2004).
Activity calls are given as the source filed them. Rule as the data show it, for most assays here: actives have a measured IC50 and inactives only a lower limit.

Assays:
[1] = target: T1, Caspase-3 (Homo sapiens, UniProt P42574); assay type: functional
T1 sequence (P42574 whole entry): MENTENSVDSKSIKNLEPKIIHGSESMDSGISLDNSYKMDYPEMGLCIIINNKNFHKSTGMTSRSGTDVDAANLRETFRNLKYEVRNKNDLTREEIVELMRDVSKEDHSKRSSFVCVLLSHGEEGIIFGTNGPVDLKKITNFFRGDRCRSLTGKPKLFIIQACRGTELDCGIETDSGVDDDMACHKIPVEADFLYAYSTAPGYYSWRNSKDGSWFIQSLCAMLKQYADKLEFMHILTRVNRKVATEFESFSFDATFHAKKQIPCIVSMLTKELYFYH

[2] = target: T2, Sentrin-specific protease 7 (Homo sapiens, UniProt Q9BQF6); assay type: functional;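 also: Luminescence-based dose-response confirmation of ultra-high-throughput screening hits, measuring inhibition of SENP7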
T2 sequence (Q9BQF6 whole entry): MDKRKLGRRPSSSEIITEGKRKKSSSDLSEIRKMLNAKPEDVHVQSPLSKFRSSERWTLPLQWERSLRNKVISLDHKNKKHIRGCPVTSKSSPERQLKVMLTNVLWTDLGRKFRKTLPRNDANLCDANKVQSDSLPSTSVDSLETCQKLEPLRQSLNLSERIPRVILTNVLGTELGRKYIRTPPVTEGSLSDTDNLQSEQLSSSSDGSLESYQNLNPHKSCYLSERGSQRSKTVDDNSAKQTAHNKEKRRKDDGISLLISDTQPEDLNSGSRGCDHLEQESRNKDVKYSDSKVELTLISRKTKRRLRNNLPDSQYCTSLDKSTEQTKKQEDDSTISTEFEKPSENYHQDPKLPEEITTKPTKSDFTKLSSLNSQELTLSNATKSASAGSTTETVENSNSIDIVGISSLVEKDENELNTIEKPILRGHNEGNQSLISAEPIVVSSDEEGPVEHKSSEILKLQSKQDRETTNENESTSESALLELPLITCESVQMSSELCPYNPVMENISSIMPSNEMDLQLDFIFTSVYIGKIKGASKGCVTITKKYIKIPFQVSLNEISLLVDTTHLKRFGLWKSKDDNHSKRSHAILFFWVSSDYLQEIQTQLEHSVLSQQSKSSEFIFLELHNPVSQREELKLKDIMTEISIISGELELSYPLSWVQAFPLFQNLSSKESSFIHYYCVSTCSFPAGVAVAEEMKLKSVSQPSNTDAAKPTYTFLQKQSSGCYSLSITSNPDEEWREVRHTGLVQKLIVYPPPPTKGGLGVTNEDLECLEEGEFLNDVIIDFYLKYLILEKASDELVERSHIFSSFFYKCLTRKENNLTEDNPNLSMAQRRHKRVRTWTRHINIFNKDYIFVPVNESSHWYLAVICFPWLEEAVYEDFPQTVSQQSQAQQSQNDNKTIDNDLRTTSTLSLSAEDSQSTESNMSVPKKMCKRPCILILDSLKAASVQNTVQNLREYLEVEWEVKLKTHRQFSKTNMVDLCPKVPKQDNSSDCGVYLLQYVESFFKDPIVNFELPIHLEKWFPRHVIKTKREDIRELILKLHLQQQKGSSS

[3] = target: T3, Sentrin-specific protease 6 (Homo sapiens, UniProt Q9GZR1); assay type: functional;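 also: Luminescence-based dose-response confirmatory assay of SENP6 inhibition, following up an ultra-high-throughput screen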
T3 sequence (Q9GZR1 whole entry): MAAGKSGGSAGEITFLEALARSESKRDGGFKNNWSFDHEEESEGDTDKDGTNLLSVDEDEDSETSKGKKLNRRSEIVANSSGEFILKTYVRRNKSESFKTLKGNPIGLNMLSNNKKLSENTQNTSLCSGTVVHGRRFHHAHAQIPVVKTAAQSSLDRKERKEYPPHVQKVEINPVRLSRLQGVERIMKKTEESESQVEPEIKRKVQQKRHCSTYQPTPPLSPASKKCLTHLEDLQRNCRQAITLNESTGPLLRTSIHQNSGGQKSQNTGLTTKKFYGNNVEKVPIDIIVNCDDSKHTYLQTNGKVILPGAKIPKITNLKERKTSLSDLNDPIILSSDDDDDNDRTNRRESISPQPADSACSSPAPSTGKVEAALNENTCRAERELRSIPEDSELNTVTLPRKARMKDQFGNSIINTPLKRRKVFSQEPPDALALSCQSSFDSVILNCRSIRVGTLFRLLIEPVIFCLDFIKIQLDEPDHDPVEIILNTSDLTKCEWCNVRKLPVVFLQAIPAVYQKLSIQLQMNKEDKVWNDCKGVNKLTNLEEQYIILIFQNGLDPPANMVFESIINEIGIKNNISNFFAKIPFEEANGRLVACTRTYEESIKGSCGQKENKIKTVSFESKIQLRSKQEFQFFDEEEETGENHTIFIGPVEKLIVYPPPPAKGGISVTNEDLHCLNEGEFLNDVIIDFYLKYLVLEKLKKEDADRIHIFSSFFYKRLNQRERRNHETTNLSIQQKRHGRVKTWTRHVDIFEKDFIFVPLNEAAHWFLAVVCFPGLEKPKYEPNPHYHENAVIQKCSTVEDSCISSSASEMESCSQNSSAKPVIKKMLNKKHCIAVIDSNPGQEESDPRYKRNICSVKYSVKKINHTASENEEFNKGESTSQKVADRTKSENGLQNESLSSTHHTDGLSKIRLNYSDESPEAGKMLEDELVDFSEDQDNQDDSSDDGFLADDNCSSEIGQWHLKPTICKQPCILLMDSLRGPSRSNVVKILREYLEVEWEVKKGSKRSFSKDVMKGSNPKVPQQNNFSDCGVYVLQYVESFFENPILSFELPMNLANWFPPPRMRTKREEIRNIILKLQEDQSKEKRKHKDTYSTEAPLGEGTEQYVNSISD

[4] = target: T4, Sentrin-specific protease 8 (Homo sapiens, UniProt Q96LD8); assay type: functional;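 also: luminescence read-out of SENP8 inhibition, dose-response confirmation following an ultra-high-throughput screen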
T4 sequence (Q96LD8 whole entry): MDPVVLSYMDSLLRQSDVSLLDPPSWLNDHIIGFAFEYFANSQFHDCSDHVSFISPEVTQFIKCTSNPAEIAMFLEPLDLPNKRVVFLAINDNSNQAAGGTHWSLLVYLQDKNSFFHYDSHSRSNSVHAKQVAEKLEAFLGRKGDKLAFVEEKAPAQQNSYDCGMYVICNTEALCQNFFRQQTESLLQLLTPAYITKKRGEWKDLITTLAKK

[5] = target: Serine/threonine-protein phosphatase PP1-alpha catalytic subunit (Homo sapiens, UniProt P62136); assay: PP1 phosphatase inhibitors, dose response, biochemical, fluorescence (AID 2394)
Sequence of Serine/threonine-protein phosphatase PP1-alpha catalytic subunit (P62136 whole entry): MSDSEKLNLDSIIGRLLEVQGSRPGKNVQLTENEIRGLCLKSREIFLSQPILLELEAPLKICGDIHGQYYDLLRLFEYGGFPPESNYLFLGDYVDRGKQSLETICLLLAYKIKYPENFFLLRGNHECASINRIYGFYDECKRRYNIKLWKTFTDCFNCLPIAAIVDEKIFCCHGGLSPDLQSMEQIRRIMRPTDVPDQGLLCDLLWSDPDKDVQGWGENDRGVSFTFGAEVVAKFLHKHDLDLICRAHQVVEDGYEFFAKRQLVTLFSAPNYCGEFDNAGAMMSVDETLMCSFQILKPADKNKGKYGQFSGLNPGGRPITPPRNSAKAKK

[6] = growth suppression of PTEN-null colon cells, dose response, cell-based, HCT116 PTEN knockout (AID 1047); assay type: functional;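 also: HCT116 colon tumor cells with PTEN knocked out; cells exposed to compound for 60 hours before readout; potency for loss of cell viability measured by luminescence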
[7] = target: Serine/threonine-protein phosphatase (Homo sapiens, UniProt Q9BPW0); assay: PP5 phosphatase inhibitors, dose response, biochemical, fluorescence (AID 2395)
Sequence of Serine/threonine-protein phosphatase (Q9BPW0 whole entry): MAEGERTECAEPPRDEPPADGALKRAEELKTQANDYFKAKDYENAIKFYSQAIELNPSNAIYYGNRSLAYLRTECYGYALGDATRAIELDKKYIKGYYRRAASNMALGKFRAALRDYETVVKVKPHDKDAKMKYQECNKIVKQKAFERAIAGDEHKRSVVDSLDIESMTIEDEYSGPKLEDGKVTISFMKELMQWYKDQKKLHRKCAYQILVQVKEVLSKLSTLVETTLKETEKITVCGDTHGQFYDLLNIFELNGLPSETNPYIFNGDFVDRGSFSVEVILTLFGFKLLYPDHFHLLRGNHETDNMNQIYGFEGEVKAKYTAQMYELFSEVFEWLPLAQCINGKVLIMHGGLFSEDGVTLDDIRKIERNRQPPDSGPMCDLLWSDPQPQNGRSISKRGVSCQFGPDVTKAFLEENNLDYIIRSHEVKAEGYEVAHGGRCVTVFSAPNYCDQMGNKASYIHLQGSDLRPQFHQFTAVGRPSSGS

[8] = growth suppression of beta-catenin-knockout colon cells, dose response, cell-based, HCT116, human colon tumor (AID 1045); assay type: functional;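 also: HCT116 colon tumor cells with beta catenin knocked out; cells exposed to compound for 60 hours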
[9] = target: T1, Caspase-3; assay: SAR Analysis of small molecule inhibitors of Sentrin-specific proteases (SENPs) using a Caspase-3 Selectivity assay. [Related pubchem assays (depositor defined):AID2540, AID2599, AID434973, AID489001]; assay type: functional

| SMILES | IC50 [1] | IC50 [2] | IC50 [3] | IC50 [4] | IC50 [5] | EC50 [6] | IC50 [7] | EC50 [8] | IC50 [9] |
| --- | --- | --- | --- | --- | --- | --- | --- | --- | --- |
| CCOC(=O)C1=C(COC(=O)c2ccc([N+](=O)[O-])s2)NC(=O)NC1C (stereo not drawn) | 8.13 µM (active) | 6.1 µM (active) | 4.48 µM (active) | 3.57 µM (active) | – | – | – | – | – |
| Oc1cccc(/C=N/Nc2cc(N3CCCC3)nc(N3CCCC3)n2)c1 | > 100 µM (inactive) | 9.99 µM (active) | 6.69 µM (active) | 17.2 µM (active) | 21.6 µM (not active) | 20.3 µM (active) | 5.83 µM (active) | 18.8 µM (active) | > 99 µM (inactive) |
